In ChEMBL document CHEMBL5678803, “Selective blockade of TRPA1 channel attenuates pathological pain without altering noxious cold sensation or body temperature regulation” (Pain, 2011):
Active and inactive are the calls of the source. The rule behind the calls is not given here.

Columns and labels:
[1] = Ratio of drug concentration in rat brain to plasma at 2 mg/kg, po; format: ADME, organism-based; settings: read-out: BPR
[2] = molecular target: T1, Transient receptor potential cation channel subfamily V member 2 (Rattus norvegicus) (UniProt Q9WUD2); test: Antagonist activity at rat TRPV2 expressed in HEK293F cells assessed as inhibition of 2APB-induced TRPV2 channel activation by FLIPR-based Ca2+ assay relative to control; format: cell-based; settings: concentration not given here
T1 sequence (whole entry): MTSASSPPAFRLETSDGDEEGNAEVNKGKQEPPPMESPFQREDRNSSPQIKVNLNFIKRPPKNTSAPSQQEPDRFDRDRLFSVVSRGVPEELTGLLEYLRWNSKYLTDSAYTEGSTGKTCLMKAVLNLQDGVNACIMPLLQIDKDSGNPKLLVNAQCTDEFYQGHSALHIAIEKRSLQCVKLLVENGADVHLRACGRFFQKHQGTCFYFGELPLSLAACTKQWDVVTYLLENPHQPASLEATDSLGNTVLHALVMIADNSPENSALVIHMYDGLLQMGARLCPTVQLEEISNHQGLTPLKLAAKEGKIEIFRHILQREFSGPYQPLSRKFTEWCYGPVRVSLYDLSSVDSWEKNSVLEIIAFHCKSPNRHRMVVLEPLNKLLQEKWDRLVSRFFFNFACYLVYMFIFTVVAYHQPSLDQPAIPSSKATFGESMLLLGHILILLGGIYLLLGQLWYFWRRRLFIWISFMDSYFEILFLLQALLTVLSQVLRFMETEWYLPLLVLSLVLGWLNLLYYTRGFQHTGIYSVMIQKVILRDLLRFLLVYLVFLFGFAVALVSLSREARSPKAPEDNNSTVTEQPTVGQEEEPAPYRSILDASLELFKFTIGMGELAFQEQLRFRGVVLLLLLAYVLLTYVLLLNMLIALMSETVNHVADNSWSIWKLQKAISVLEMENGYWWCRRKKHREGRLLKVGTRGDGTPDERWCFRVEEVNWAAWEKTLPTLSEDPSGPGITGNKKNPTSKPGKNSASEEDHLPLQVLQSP

[3] = Toxicity in CD1 mouse assessed as effect on total forepaw shivering response at 5 degreeC at 62.1 mg/kg, po measured after 4 mins by noxious cold plate assay; format: organism-based; settings: in vivo
[4] = molecular target: Transient receptor potential cation channel subfamily A member 1 (Rattus norvegicus) (UniProt Q6RI86); test: Antagonist activity at endogenous TRPA1 in rat DRG neurons assessed as blockade of capsaicin-induced CGRP release at 50 micromol/L; format: cell-based; settings: DRG neuron, dose 50.0 µmol/L
[5] = molecular target: T2, Transient receptor potential cation channel subfamily V member 1 (Homo sapiens, UniProt Q8NER1); test: Activation of human TRPV1 expressed in HEK293F cells upto 100 micromol/L; format: cell-based; settings: dose <= 100.0 µmol/L
[6] = molecular target: T3, Transient receptor potential cation channel subfamily V member 3 (Homo sapiens, UniProt Q8NET8); test: Antagonist activity at endogenous TRPV3 in human epithelial cells assessed as inhibition of 2APB-induced increase in intracellular Ca2+ level by FLIPR-based Ca2+ assay; format: cell-based, Epithelial cell
T3 sequence (Q8NET8 whole entry): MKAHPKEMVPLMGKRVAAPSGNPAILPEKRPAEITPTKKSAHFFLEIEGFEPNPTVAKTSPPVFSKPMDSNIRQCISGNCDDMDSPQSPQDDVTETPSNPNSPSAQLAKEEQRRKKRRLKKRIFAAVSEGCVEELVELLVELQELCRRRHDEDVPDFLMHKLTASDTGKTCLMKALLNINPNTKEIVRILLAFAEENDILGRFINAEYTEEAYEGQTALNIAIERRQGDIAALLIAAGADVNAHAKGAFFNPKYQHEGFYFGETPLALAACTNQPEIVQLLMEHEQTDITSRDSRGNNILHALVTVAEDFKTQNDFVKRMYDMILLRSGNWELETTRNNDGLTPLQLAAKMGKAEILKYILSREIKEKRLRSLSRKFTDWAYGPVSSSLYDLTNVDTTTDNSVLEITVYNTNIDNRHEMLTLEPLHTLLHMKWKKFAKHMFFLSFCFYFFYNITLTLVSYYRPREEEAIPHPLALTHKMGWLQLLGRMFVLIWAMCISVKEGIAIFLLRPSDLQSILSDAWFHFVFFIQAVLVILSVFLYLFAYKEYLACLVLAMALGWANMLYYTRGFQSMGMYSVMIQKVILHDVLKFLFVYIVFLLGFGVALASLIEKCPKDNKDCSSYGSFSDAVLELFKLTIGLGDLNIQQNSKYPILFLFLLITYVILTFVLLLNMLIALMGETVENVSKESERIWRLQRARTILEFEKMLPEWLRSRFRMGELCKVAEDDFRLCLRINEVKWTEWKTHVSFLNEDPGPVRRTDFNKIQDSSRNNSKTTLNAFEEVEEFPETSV

[7] = molecular target: T1, Transient receptor potential cation channel subfamily V member 2 (Rattus norvegicus); test: Activation of rat TRPV2 expressed in HEK293F cells upto 100 micromol/L; format: cell-based; settings: dose <= 100.0 µmol/L
[8] = Toxicity in Sprague-Dawley rat assessed as effect on mean arterial pressure; settings: in vivo
[9] = Toxicity in Sprague-Dawley rat assessed as effect on body temperature at 20.7 to 62.1 mg/kg, po measured after 480 mins by radiotelemetric analysis; format: organism-based; settings: in vivo, 8 h, dose 20.7-62.1 mg/kg
[10] = Unbound drug concentration in rat at 62.1 mg/kg, po measured after 60 mins; format: ADME, organism-based; settings: in vivo, 1 h
[11] = molecular target: Transient receptor potential cation channel subfamily V member 4 (Homo sapiens, UniProt Q9HBA0); test: Activation of human TRPV4 expressed in HEK293F cells upto 100 micromol/L; format: cell-based; settings: dose <= 100.0 µmol/L
[12] = molecular target: Transient receptor potential cation channel subfamily M member 8 (Homo sapiens, UniProt Q7Z2W7); test: Antagonist activity at human TRPM8 expressed in HEK293F cells assessed as inhibition of menthol-induced increase in intracellular Ca2+ level by FLIPR-based Ca2+ assay; format: cell-based
[13] = tested on: Rattus norvegicus; test: Analgesic activity in MIA-induced osteoarthritic pain Sprague-Dawley rat model assessed as reversal of MIA-induced hind limb grip force deficit preadministered with MIA for 3 weeks followed by oral administration of compound for 1 hrs; format: functional; settings: dose 6.2-62.1 mg/kg
[14] = molecular target: T4, Transient receptor potential cation channel subfamily V member 3 (Homo sapiens) (UniProt Q8NET8); test: Antagonist activity at endogenous TRPV3 in human epithelial cells assessed as inhibition of 2APB-induced TRPV3 channel activation by FLIPR-based Ca2+ assay relative to control; settings: Epithelial cell, concentration not given here
T4 sequence (whole entry): T3 sequence (Q8NET8 whole entry)

[15] = molecular target: Sodium-dependent noradrenaline transporter (Homo sapiens) (UniProt P23975); test: Inhibition of norepinephrine transporter (unknown origin) at 10 micromol/L by radioligand binding assay; settings: dose 10.0 µmol/L
[16] = molecular target: T2, Transient receptor potential cation channel subfamily V member 1; test: Antagonist activity at human TRPV1 expressed in HEK293F cells assessed as inhibition of capsaicin-induced TRPV1 channel activation by FLIPR-based Ca2+ assay relative to control; format: cell-based; settings: concentration not given here
[17] = Chemical reactivity of compound to 13C-labelled La antigen by ALARM NMR spectroscopic analysis; format: physicochemical

T2 sequence (Q8NER1 whole entry): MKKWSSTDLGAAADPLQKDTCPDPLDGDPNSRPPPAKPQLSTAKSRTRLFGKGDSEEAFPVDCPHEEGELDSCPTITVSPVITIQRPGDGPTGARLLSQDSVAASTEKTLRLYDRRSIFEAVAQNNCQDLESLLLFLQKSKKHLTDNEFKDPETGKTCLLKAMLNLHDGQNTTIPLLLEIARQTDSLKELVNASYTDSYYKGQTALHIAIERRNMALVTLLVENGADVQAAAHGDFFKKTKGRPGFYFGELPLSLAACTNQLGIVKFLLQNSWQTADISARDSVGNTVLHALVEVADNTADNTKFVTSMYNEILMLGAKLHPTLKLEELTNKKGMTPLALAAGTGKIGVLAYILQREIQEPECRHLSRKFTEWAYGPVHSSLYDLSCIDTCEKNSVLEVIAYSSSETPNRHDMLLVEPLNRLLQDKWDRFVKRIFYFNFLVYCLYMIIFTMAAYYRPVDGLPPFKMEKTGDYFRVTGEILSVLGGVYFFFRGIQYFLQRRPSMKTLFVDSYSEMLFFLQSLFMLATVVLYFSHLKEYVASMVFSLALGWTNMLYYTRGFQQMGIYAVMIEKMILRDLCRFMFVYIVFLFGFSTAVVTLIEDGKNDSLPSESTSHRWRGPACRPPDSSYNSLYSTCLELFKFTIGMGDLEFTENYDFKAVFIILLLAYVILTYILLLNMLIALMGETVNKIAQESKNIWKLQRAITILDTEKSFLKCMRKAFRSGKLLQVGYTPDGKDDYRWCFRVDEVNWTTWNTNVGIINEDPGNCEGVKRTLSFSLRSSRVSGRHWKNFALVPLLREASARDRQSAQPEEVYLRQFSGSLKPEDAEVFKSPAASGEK
Sodium-dependent noradrenaline transporter (Homo sapiens), sequence (P23975 whole entry): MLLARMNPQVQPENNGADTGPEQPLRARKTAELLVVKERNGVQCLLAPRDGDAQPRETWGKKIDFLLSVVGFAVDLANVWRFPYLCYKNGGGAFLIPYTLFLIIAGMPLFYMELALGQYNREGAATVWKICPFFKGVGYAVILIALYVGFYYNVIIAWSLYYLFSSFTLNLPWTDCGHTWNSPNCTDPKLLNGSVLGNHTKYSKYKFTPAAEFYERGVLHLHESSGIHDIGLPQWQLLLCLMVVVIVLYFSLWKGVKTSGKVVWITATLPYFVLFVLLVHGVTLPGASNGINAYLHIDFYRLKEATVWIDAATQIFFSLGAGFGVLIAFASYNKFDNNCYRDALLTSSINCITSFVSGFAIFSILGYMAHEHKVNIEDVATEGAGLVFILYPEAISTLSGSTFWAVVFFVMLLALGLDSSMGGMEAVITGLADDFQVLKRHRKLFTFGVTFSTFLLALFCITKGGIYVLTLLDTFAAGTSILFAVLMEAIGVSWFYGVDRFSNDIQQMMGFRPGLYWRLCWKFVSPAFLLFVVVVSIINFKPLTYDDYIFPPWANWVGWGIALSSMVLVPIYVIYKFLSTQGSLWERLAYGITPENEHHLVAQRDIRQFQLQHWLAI
Transient receptor potential cation channel subfamily A member 1 (Rattus norvegicus), sequence (Q6RI86 whole entry): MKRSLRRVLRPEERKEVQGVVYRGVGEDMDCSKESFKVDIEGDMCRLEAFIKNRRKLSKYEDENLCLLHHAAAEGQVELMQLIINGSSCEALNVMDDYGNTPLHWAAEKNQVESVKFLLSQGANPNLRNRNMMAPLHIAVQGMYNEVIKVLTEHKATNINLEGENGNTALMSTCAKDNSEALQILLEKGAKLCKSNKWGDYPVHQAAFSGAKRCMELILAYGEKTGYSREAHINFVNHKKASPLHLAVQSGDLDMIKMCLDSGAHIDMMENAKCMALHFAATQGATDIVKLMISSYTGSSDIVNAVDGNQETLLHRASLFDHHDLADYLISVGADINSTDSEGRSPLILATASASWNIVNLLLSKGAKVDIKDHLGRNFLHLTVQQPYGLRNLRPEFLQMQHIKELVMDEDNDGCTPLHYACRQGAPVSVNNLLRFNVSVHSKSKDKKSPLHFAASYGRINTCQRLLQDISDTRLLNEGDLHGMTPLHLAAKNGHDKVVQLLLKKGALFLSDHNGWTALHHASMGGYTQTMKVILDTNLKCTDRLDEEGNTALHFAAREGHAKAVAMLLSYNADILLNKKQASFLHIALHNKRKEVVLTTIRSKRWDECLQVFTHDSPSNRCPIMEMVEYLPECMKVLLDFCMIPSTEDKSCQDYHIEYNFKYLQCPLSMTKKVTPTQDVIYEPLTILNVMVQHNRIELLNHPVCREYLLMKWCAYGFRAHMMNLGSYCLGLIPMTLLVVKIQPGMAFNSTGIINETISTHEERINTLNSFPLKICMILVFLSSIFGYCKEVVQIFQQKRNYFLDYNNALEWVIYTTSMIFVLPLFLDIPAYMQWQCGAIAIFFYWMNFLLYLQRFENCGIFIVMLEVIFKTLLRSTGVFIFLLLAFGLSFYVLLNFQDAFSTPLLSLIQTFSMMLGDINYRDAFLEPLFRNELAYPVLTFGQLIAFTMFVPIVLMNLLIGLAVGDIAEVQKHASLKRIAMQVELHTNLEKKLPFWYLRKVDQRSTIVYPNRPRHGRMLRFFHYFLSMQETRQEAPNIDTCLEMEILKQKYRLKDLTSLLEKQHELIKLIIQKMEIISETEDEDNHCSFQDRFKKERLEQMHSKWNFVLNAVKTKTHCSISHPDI
Transient receptor potential cation channel subfamily M member 8, sequence (Q7Z2W7 whole entry): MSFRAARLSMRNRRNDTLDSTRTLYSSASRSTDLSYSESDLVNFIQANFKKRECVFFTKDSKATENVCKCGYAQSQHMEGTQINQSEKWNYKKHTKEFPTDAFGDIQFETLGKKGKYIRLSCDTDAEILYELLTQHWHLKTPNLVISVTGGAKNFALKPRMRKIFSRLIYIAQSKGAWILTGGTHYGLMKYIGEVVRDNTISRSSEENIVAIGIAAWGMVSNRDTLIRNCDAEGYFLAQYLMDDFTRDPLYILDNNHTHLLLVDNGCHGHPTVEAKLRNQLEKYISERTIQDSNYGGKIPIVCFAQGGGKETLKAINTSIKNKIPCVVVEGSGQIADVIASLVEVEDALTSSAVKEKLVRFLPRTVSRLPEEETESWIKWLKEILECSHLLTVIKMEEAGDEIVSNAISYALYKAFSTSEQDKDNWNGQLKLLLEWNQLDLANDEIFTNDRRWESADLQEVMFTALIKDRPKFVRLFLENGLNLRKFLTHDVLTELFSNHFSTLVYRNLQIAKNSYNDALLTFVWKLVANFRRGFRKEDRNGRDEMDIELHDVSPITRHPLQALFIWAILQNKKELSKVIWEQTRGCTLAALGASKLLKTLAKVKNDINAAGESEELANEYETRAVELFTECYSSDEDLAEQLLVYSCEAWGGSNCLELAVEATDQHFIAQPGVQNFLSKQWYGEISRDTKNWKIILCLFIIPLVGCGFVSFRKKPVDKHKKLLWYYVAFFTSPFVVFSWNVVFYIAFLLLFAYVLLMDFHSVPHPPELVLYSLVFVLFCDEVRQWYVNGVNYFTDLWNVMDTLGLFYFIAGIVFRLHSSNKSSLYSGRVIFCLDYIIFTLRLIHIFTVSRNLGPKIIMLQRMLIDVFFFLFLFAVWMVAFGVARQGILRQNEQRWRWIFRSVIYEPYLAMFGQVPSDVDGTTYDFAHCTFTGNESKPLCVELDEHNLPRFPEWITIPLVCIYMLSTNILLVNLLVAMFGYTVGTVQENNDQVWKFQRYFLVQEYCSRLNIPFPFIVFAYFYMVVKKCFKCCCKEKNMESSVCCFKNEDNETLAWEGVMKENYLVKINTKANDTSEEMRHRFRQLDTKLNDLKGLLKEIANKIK
Transient receptor potential cation channel subfamily V member 4, sequence (Q9HBA0 whole entry): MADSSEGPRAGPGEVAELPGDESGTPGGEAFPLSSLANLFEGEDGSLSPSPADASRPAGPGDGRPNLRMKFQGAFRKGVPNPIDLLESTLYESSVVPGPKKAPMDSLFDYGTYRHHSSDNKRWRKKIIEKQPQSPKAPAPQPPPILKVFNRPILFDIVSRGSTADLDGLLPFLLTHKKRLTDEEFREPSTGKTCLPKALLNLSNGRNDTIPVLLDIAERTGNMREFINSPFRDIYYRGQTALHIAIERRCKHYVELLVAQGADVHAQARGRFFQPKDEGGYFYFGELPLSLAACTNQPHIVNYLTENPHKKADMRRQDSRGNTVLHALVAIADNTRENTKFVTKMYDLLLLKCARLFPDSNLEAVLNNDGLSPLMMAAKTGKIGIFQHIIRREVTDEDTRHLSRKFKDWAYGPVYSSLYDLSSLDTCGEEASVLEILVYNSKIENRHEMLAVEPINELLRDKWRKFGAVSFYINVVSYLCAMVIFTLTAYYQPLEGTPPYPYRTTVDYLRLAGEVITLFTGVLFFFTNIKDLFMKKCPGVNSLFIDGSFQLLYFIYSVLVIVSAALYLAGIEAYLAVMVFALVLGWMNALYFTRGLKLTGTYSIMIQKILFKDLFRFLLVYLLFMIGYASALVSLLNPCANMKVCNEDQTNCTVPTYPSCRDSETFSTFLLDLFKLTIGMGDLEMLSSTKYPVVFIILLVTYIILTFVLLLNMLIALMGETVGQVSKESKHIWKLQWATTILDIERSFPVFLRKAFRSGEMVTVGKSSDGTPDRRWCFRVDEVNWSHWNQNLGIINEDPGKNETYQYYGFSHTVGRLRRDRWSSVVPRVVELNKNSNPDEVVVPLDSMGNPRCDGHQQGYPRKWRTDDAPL

Compound: CCC(=N\O)/C(C)=C/c1ccc(F)cc1 [A-079]
- Kp [1]: 0.75
- inhibition [2]: < 20%
- Activity [3]: Non-Toxic
- Activity [4]: inactive
- Activity [5]: inactive
- IC50 [6]: > 100 µM
- Activity [7]: inactive
- Activity [8]: Non-Toxic
- Activity [9]: Non-Toxic
- Drug uptake(free) [10]: 0.47 µmol/L
- Activity [11]: inactive
- IC50 [12]: > 100 µM
- Activity [13]: Dose-Dependent Effect
- ED50 [13]: 23.2 mg/kg
- inhibition [14]: < 20%
- inhibition [15]: 32%
- inhibition [16]: < 20%
- Stability [17]: Stable
